# Tests used:
# galium = assay: Test C preemergence; format: in vivo, Galium aparine
# Summary of the method: (§1)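 Plants were kept under greenhouse conditions for 13–15 days following spray. Pre-emergent application went to soil (loam–sand), post-emergent to foliage at 1–4 leaves. Evaluation: visual, percent control against untreated checks.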
# chickweed = assay: Test C postemergence; format: in vivo, Stellaria media
# Summary of the method: as §1
# johnsongrass = assay: Test C preemergence; format: in vivo, Sorghum halepense; conditions: preemergence
# Summary of the method: as §1
# giant foxtail = assay: Test A preemergence; format: in vivo, Setaria faberii; conditions: 0 to 100 scale where 0 is no effect and 100 is complete control
# Summary of the method: (§2)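 Pre- and postemergence greenhouse screen. Soil: loam + sand. Spray carrier: solvent mixture, non-phytotoxic, with surfactant. Post timing at 1–2 leaves, height 2–10 cm. Readout: visual injury on a 0–100 scale roughly 10 days after application, untreated plants as reference.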
# morningglory = assay: Test C preemergence; format: in vivo, Ipomoea coccinea; conditions: preemergence
# Summary of the method: as §1
# Heteranthera limosa = assay: Test B flooded paddy test; format: in vivo; conditions: Flood, 250 g ai/ha, 0 to 100 scale where 0 is no effect and 100 is complete control
# Summary of the method: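 Evaluation is visual, against untreated controls, 13 to 15 days after treatment. Before treatment, plants reached the 2-leaf stage; pots were then flooded 3 cm deep, compound was added to the water, and that level was maintained. Ratings run 0 to 100, with 100 meaning complete control.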
# pigweed = assay: Test A postemergence; format: in vivo, Amaranthus retroflexus; conditions: 0 to 100 scale where 0 is no effect and 100 is complete control
# Summary of the method: as §2
# oilseed rape = assay: Test C preemergence; format: in vivo, Brassica napus; conditions: preemergence
# Summary of the method: as §1
# large (Lg) crabgrass = assay: Test C postemergence; format: in vivo, Digitaria sanguinalis
# Summary of the method: as §1
# corn = assay: Test C postemergence; format: in vivo, Zea mays
# Summary of the method: as §1
# velvetleaf = assay: Test C preemergence; format: in vivo, Abutilon theophrasti; conditions: preemergence
# Summary of the method: as §1
# Italian ryegrass = assay: Test C preemergence; format: in vivo, Lolium multiflorum; conditions: preemergence
# Summary of the method: as §1
# wheat, winter = assay: Test C postemergence; format: in vivo, Triticum aestivum
# Summary of the method: as §1
# [1] = 16 g ai/ha, postemergence, 0 is no effect, 100 is complete control
# [2] = 125 g ai/ha, postemergence, visual rating, scale 0 to 100 (0 no effect, 100 complete control)
# [3] = Postemergence, 62 g ai/ha, scale 0 to 100 (0 no effect, 100 complete control)
# [4] = 16 g ai/ha, scale 0 to 100 (0 no effect, 100 complete control)
# [5] = 62 g ai/ha, scale 0 (no effect) to 100 (complete control)
# [6] = 125 g ai/ha, scale 0 (no effect) to 100 (complete control)
smiles,measurement,setting,value
Cc1cnc(Oc2cccc(C#N)c2-n2cc(I)cn2)nc1 [Compound 136],Galium plant response rating,"galium; 16 g ai/ha, preemergence, scale 0 to 100 (0 no effect, 100 complete control)",0
same,Galium plant response rating,"galium; 62 g ai/ha, preemergence, scale 0 (no effect) to 100 (complete control)",30
same,Galium plant response rating,"galium; 125 g ai/ha, preemergence, scale 0 (no effect) to 100 (complete control)",85
same,"Plant response rating, Galium","galium; Preemergence, 31 g ai/ha, scale 0 to 100, 0 no effect, 100 complete control",0
same,"Plant response rating (0 to 100), Chickweed",chickweed; [1],5
same,"Plant response rating, Chickweed",chickweed; [2],60
same,"Plant response rating, Chickweed",chickweed; [3],5
same,Johnsongrass plant response rating,johnsongrass; [4],0
same,Johnsongrass plant response rating,johnsongrass; [5],20
same,Johnsongrass plant response rating,johnsongrass; [6],60
same,"Plant response rating, Foxtail, Giant",giant foxtail; 125 g ai/ha,60
same,"Foxtail, Giant plant response rating",giant foxtail; 500 g ai/ha,100
same,Morningglory plant response rating,morningglory; [4],20
same,Morningglory plant response rating,morningglory; [5],10
same,Morningglory plant response rating,morningglory; [6],60
same,"Plant response rating, Ducksalad",Heteranthera limosa,70
same,Pigweed plant response rating,pigweed; 125 g ai/ha,80
same,"Plant response rating, Pigweed",pigweed; 500 g ai/ha,100
same,Oilseed Rape plant response rating,oilseed rape; [4],0
same,Oilseed Rape plant response rating,oilseed rape; [5],50
same,Oilseed Rape plant response rating,oilseed rape; [6],100
same,"Plant response rating (0 to 100), Crabgrass, Large",large (Lg) crabgrass; [1],5
same,"Plant response rating, Crabgrass, Large",large (Lg) crabgrass; [2],15
same,"Plant response rating, Crabgrass, Large",large (Lg) crabgrass; [3],5
same,"Plant response rating (0 to 100), Corn",corn; [1],0
same,"Plant response rating, Corn",corn; [2],5
same,"Plant response rating, Corn",corn; [3],0
same,Velvetleaf plant response rating,velvetleaf; [4],5
same,Velvetleaf plant response rating,velvetleaf; [5],30
same,Velvetleaf plant response rating,velvetleaf; [6],90
same,"Ryegrass, Italian plant response rating",Italian ryegrass; [4],0
same,"Ryegrass, Italian plant response rating",Italian ryegrass; [5],0
same,"Ryegrass, Italian plant response rating",Italian ryegrass; [6],15
same,"Plant response rating (0 to 100), Wheat","wheat, winter; [1]",0
same,"Plant response rating, Wheat","wheat, winter; [2]",5
same,"Plant response rating, Wheat","wheat, winter; [3]",5
"FC(F)(F)COc1cnn(-c2ccccc2Oc2ncc(Cl)cn2)c1 [Compound 138, 5-chloro-2-[2-[4-(2,2,2-trifluoroethoxy)-1H-pyrazol-1-yl]phenoxy]pyrimidine]",pest or weed control at 16 g/ha,"galium; Galium, pre-emergence, 16 g ai/ha, preemergence, scale 0 to 100 (0 no effect, 100 complete control), read-out: Galium plant response rating",90%
same,pest or weed control at 62 g/ha,"galium; Galium, pre-emergence, 62 g ai/ha, preemergence, scale 0 (no effect) to 100 (complete control), read-out: Galium plant response rating",90%
same,pest or weed control at 125 g/ha,"galium; Galium, pre-emergence, 125 g ai/ha, preemergence, scale 0 (no effect) to 100 (complete control), read-out: Galium plant response rating",100%
same,pest or weed control at 31 g/ha,"galium; Galium, pre-emergence, Preemergence, 31 g ai/ha, scale 0 to 100, 0 no effect, 100 complete control, read-out: Plant response rating, Galium",90%
same,pest or weed control at 16 g/ha,"chickweed; Stellaria media, post-emergence, 16 g ai/ha, postemergence, 0 is no effect, 100 is complete control, read-out: Plant response rating (0 to 100), Chickweed",5%
same,pest or weed control at 125 g/ha,"chickweed; Stellaria media, post-emergence, 125 g ai/ha, postemergence, visual rating, scale 0 to 100 (0 no effect, 100 complete control), read-out: Plant response rating, Chickweed",55%
same,pest or weed control at 62 g/ha,"chickweed; Stellaria media, post-emergence, Postemergence, 62 g ai/ha, scale 0 to 100 (0 no effect, 100 complete control), read-out: Plant response rating, Chickweed",50%
same,pest or weed control at 16 g/ha,"johnsongrass; Sorghum halepense, pre-emergence, 16 g ai/ha, scale 0 to 100 (0 no effect, 100 complete control), read-out: Johnsongrass plant response rating",0%
same,pest or weed control at 62 g/ha,"johnsongrass; Sorghum halepense, pre-emergence, 62 g ai/ha, scale 0 (no effect) to 100 (complete control), read-out: Johnsongrass plant response rating",40%
same,pest or weed control at 125 g/ha,"johnsongrass; Sorghum halepense, pre-emergence, 125 g ai/ha, scale 0 (no effect) to 100 (complete control), read-out: Johnsongrass plant response rating",65%
same,pest or weed control at 125 g/ha,"giant foxtail; Setaria faberi, pre-emergence, 240 h, 125 g ai/ha, read-out: Plant response rating, Foxtail, Giant",90%
same,pest or weed control at 500 g/ha,"giant foxtail; Setaria faberi, pre-emergence, 240 h, 500 g ai/ha, read-out: Foxtail, Giant plant response rating",100%
same,pest or weed control at 16 g/ha,"morningglory; Ipomoea, pre-emergence, 16 g ai/ha, scale 0 to 100 (0 no effect, 100 complete control), read-out: Morningglory plant response rating",0%
same,pest or weed control at 62 g/ha,"morningglory; Ipomoea, pre-emergence, 62 g ai/ha, scale 0 (no effect) to 100 (complete control), read-out: Morningglory plant response rating",10%
same,pest or weed control at 125 g/ha,"morningglory; Ipomoea, pre-emergence, 125 g ai/ha, scale 0 (no effect) to 100 (complete control), read-out: Morningglory plant response rating",35%
same,pest or weed control at 250 g/ha,"Heteranthera limosa; Heteranthera limosa, read-out: Plant response rating, Ducksalad",90%
same,pest or weed control at 500 g/ha,"pigweed; Amaranthus retroflexus, post-emergence, 500 g ai/ha, read-out: Plant response rating, Pigweed",100%
same,pest or weed control at 125 g/ha,"pigweed; Amaranthus retroflexus, post-emergence, 240 h, 125 g ai/ha, read-out: Pigweed plant response rating",100%
same,plant injury at 16 g/ha,"oilseed rape; Brassica napus, pre-emergence, 16 g ai/ha, scale 0 to 100 (0 no effect, 100 complete control), read-out: Oilseed Rape plant response rating",80%
same,plant injury at 62 g/ha,"oilseed rape; Brassica napus, pre-emergence, 62 g ai/ha, scale 0 (no effect) to 100 (complete control), read-out: Oilseed Rape plant response rating",100%
same,plant injury at 125 g/ha,"oilseed rape; Brassica napus, pre-emergence, 125 g ai/ha, scale 0 (no effect) to 100 (complete control), read-out: Oilseed Rape plant response rating",100%
same,pest or weed control at 16 g/ha,"large (Lg) crabgrass; Digitaria sanguinalis, post-emergence, 16 g ai/ha, postemergence, 0 is no effect, 100 is complete control, read-out: Plant response rating (0 to 100), Crabgrass, Large",10%
same,pest or weed control at 125 g/ha,"large (Lg) crabgrass; Digitaria sanguinalis, post-emergence, 125 g ai/ha, postemergence, visual rating, scale 0 to 100 (0 no effect, 100 complete control), read-out: Plant response rating, Crabgrass, Large",15%
same,pest or weed control at 62 g/ha,"large (Lg) crabgrass; Digitaria sanguinalis, post-emergence, Postemergence, 62 g ai/ha, scale 0 to 100 (0 no effect, 100 complete control), read-out: Plant response rating, Crabgrass, Large",15%
same,plant injury at 16 g/ha,"corn; Zea mays, post-emergence, 16 g ai/ha, postemergence, 0 is no effect, 100 is complete control, read-out: Plant response rating (0 to 100), Corn",5%
same,"Corn plant response rating (crop injury, 0 = no effect, 100 = complete kill) at 125 g/ha","corn; Zea mays, post-emergence, 125 g ai/ha, postemergence, visual rating, scale 0 to 100 (0 no effect, 100 complete control)",10%
same,"Corn plant response rating (crop injury, 0 = no effect, 100 = complete kill) at 62 g/ha","corn; Zea mays, post-emergence, Postemergence, 62 g ai/ha, scale 0 to 100 (0 no effect, 100 complete control)",5%
same,pest or weed control at 16 g/ha,"velvetleaf; Abutilon theophrasti, pre-emergence, 16 g ai/ha, scale 0 to 100 (0 no effect, 100 complete control), read-out: Velvetleaf plant response rating",60%
same,pest or weed control at 62 g/ha,"velvetleaf; Abutilon theophrasti, pre-emergence, 62 g ai/ha, scale 0 (no effect) to 100 (complete control), read-out: Velvetleaf plant response rating",98%
same,pest or weed control at 125 g/ha,"velvetleaf; Abutilon theophrasti, pre-emergence, 125 g ai/ha, scale 0 (no effect) to 100 (complete control), read-out: Velvetleaf plant response rating",100%
same,pest or weed control at 16 g/ha,"Italian ryegrass; Lolium multiflorum, pre-emergence, 16 g ai/ha, scale 0 to 100 (0 no effect, 100 complete control), read-out: Ryegrass, Italian plant response rating",0%
same,pest or weed control at 62 g/ha,"Italian ryegrass; Lolium multiflorum, pre-emergence, 62 g ai/ha, scale 0 (no effect) to 100 (complete control), read-out: Ryegrass, Italian plant response rating",20%
same,pest or weed control at 125 g/ha,"Italian ryegrass; Lolium multiflorum, pre-emergence, 125 g ai/ha, scale 0 (no effect) to 100 (complete control), read-out: Ryegrass, Italian plant response rating",60%
same,plant injury at 16 g/ha,"wheat, winter; Triticum aestivum, post-emergence, 16 g ai/ha, postemergence, 0 is no effect, 100 is complete control, read-out: Plant response rating (0 to 100), Wheat",0%
same,plant injury at 125 g/ha,"wheat, winter; Triticum aestivum, post-emergence, 125 g ai/ha, postemergence, visual rating, scale 0 to 100 (0 no effect, 100 complete control), read-out: Plant response rating, Wheat",5%
same,plant injury at 62 g/ha,"wheat, winter; Triticum aestivum, post-emergence, Postemergence, 62 g ai/ha, scale 0 to 100 (0 no effect, 100 complete control), read-out: Plant response rating, Wheat",0%

# — US9695155B2, “Herbicidal substituted pyrimidinyloxy benzene compounds” (E. I. DU PONT DE NEMOURS AND COMPANY, priority 2013, dated 2017)
